Assay results as given in patent US10426159B1, “Highly efficient enhancers for antifreeze protein activity” (The Trustees of California State University, priority 2012, dated 2019).
“Also recorded” adds a separate entry of the source. Read-outs that look alike come from different tables or passages of the source.

B1: DAFP-1: Dendroides canadensis antifreeze protein, recombinantly expressed in E. coli; SEQ. ID 1 amino acids 28 through 108 (protein, listed as Dendroides canadensis)
chain: TGGSDCRSCTVSCTDCQNCPNARTACTRSSNCINALTCTDSYDCHNAETCTRSTNCYKAKTCTGSTNCYEATACTDSTGCP
notes: Dendroides canadensis antifreeze protein, recombinantly expressed in E. coli; ID 1 amino acids 28 through 108

How the values were obtained:
[1] = target: T1, Dendroides canadensis antifreeze protein DAFP-1 (SEQ. ID 1, amino acid 28 through amino acid 108) (Dendroides canadensis, UniProt O46352); assay: Size-exclusion HPLC (Hummel and Dreyer gel filtration method) of NADH binding to DAFP-1; details: pH 7.00, ambient temperature, DAFP-1 1.5-20 μM, NADH 0-270 μM, nonlinear regression
T1 construct: b42 prefers 28-108
T1 sequence (O46352 26-108): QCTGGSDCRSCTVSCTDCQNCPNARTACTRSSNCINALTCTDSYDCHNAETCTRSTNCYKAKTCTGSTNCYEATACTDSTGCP
Experimental: The formation of 1:1 complex of DAFP-1 and NADH was further confirmed by HPLC analysis. With the gel filtration method of Hummel and Dreyer, the size exclusion column can be equilibrated with a buffer containing the ligand at a known concentration. The protein sample prepared in the buffer (containing the ligand at the same concentration) is injected into the equilibrated column. If binding occurs, the concentrations of the ligand in the elution buffer and in the elution are usually different. […] The bound ligand can be determined more precisely using the internal calibration method. […]
The binding of NADH to DAFP-1 was characterized using HPLC by an improved gel filtration method of Hummel and Dreyer (Hummel and Dreyer, 1962; Parsons, 1980). […] The eluates were monitored at 220 nm. […] The initial concentrations of NADH were determined using the molar extinction coefficient (ε340=6.22×10^3M^−1cm^−1) (Dawson et al., 1985). […] The amount of bound NADH was determined by the internal calibration method (Parsons 1980; Sun and Hsiao, 1993). The amount of free NADH is obtained fromthe difference of total NADH and calculated bound NADH. […]

DAFP-1 = assay: Antifreeze (TH) activity measurements by differential scanning calorimetry: enhancement of TH activity of DAFP-1; format: biochemical, Dendroides canadensis; details: for molar enhancement effectiveness order / enhancement ability for the TH activity of DAFP-1 (in words, relative): pH 7.5; for molar enhancement effectiveness order: FIG. 2 and FIG. 3
Text: (§1) The pH of the final samples was 7.5.

[2] = Solubility of enhancer in the TH test system; format: physicochemical
Text: as §1

[3] = tested on: DAFPs: DAFP-1, -2, -4, and -6; assay: TH enhancement by exemplified enhancers for DAFPs; format: biochemical, Dendroides canadensis

Molecule | molar enhancement effectiveness order (DAFP-1; DSC, DAFP-1 453 μM) | enhancement ability for the TH activity of DAFP-1 (in words, relative) (DAFP-1; DSC, DAFP-1 453 μM) | other results
NC(=O)C1=CN([C@@H]2O[C@H](COP(=O)(O)OP(=O)(O)OC[C@H]3O[C@@H](n4cnc5c(N)ncnc54)[C@H](O)[C@@H]3O)[C@@H](O)[C@H]2O)C=CC1 [NADH, (3-nicotinamide adenine dinucleotide, reduced] | NADH>NAD>TNAD>PAAD |  | Kd [1]: 280 ± 20 nM
Nc1ncnc2c1ncn2[C@@H]1O[C@H](CO)[C@@H](O)[C@H]1O [adenosine] | ADPR>AMP>adenosine>R5P>pyrophosphate>ribose |  | solubility (in words) ([2]; TH test system): low solubility; enhancement ability for the TH activity of DAFP-1 at 0.080M (DAFP-1; enhancer 0.080M): lower than that of ADP
O=P(O)(O)OP(=O)(O)O [pyrophosphate] | ADPR>AMP>adenosine>R5P>pyrophosphate>ribose |  | 
Nc1ncnc2c1ncn2C1OC(COP(=O)(O)OP(=O)(O)OCC2OC([n+]3cccc(C=O)c3)C(O)C2O)C(O)C1O (stereo not shown) [PAAD, 3-pyridine aldehyde adenine dinucleotide] | NADH>NAD>TNAD>PAAD | very efficient enhancement ability; also recorded: least effective enhancer among the analogs | 
O=C[C@H](O)[C@H](O)[C@H](O)COP(=O)(O)O [R5P, D-ribose-5-phosphate] | ADPR>AMP>adenosine>R5P>pyrophosphate>ribose |  | 
Nc1ncnc2c1ncn2[C@@H]1O[C@H](COP(=O)(O)OP(=O)(O)OP(=O)(O)O)[C@@H](O)[C@H]1O [ATP] |  |  | increase of the TH activity of DAFPs [3]: at least 5 fold
O=C[C@H](O)[C@H](O)[C@H](O)CO [ribose, D-(−)-ribose] | ADPR>AMP>adenosine>R5P>pyrophosphate>ribose | least enhancement | 
NC(=S)c1ccc[n+]([C@@H]2O[C@H](COP(=O)([O-])OP(=O)(O)OC[C@H]3O[C@@H](n4cnc5c(N)ncnc54)[C@H](O)[C@@H]3O)[C@@H](O)[C@H]2O)c1 [TNAD, thionicotinamide adenine dinucleotide] | NADH>NAD>TNAD>PAAD | very efficient enhancement ability | 
Nc1ncnc2c1ncn2[C@@H]1O[C@H](COP(=O)(O)OP(=O)(O)O)[C@@H](O)[C@H]1O [ADP, adenosine 5′-diphosphate] |  | less than that of ADPR; also recorded: lower than that of AMP | 
Cc1cc2nc3c(=O)[nH]c(=O)nc-3n(C[C@H](O)[C@H](O)[C@H](O)COP(=O)(O)OP(=O)(O)OC[C@H]3O[C@@H](n4cnc5c(N)ncnc54)[C@H](O)[C@@H]3O)c2cc1C [FAD, flavin adenine dinucleotide] |  | less than those of NADH and NAD analogs | solubility (in words) [2]: limited by its solubility
Nc1ncnc2c1ncn2[C@@H]1O[C@H](COP(=O)(O)OP(=O)(O)OC[C@H]2OC(O)[C@H](O)[C@@H]2O)[C@@H](O)[C@H]1O (stereo partly shown) [ADPR, adenosine 5′-diphosphoribose] | ADPR>AMP>adenosine>R5P>pyrophosphate>ribose | most efficient enhancement ability among these fragments | 
Nc1ncnc2c1ncn2[C@@H]1O[C@H](COP(=O)(O)O)[C@@H](O)[C@H]1O [AMP, (−)-adenosine 5′-monophosphate] | ADPR>AMP>adenosine>R5P>pyrophosphate>ribose |  | 
NC(=O)c1ccc[n+]([C@@H]2O[C@H](COP(=O)([O-])OP(=O)(O)OC[C@H]3O[C@@H](n4cnc5c(N)ncnc54)[C@H](O)[C@@H]3O)[C@@H](O)[C@H]2O)c1 [NAD, (3-nicotinamide adenine dinucleotide] | NADH>NAD>TNAD>PAAD | very similar to that of its reduced form, NADH, although slightly lower | 
O=c1[nH]c(=O)n([C@@H]2O[C@H](CO)[C@@H](O)[C@H]2O)cc1F [5-Fluorouridine] |  |  | increase of the TH activity of DAFPs [3]: 2 fold
CC(C)(COP(=O)(O)OP(=O)(O)OC[C@H]1O[C@@H](n2cnc3c(N)ncnc32)[C@H](O)[C@@H]1OP(=O)(O)O)[C@@H](O)C(=O)NCCC(=O)NCCS [CoA, coenzyme A] |  | less than those of NADH and NAD analogs | 
O=C[C@H](F)[C@@H](O)[C@H](O)[C@H](O)CO [2-fluoro-2-deoxy-D-glucose] |  |  | increase of the TH activity of DAFPs [3]: 2 fold
NC(=O)C1=CN([C@@H]2O[C@H](COP(=O)(O)OP(=O)(O)OC[C@H]3O[C@@H](n4cnc5c(N)ncnc54)[C@H](OP(=O)(O)O)[C@@H]3O)[C@@H](O)[C@H]2O)C=CC1 [NADPH, (3-nicotinamide adenine dinucleotide phosphate, reduced] |  | most efficient enhancer; also recorded: much higher than any of the known enhancers | 
B1 |  |  | TH activity of the protein sample alone (DAFP-1; DAFP-1 453 μM, no enhancer, DSC): 0.69±0.01 °C; TH activity of DAFP-1 as a function of pH (DAFP-1; pH 2 to pH 12): unchanged
